Test results published in patent publication US20240174618A1, “SUBSTITUTED (2-HETEROARYLOXYPHENYL)SULFONATES, SALTS THEREOF AND THEIR USE AS HERBICIDAL AGENTS” (Bayer Aktiengesellschaft, priority 2021, published 2024).

Assays:
Type in all cases: in vivo
Kochia scoparia (KCHSC) [1] = assay: A. Herbicidal pre-emergence efficacy, KCHSC
In short: (§1)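 Pre-emergence soil-surface spray in sandy loam pots, WP/EC in water plus 0.5% additive, 600 L/ha. Visual % damage rating after about 3 weeks in greenhouse vs. untreated; 0% = control-like, 100% = dead plants. Rates up to 1280 g/ha.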

[2] = tested on: Polygonum convolvulus (POLCO); assay: C. Herbicidal pre-emergence efficacy, POLCO; conditions: scored after about 3 weeks
In short: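 Pre-emergence test: formulated compounds sprayed as aqueous suspension or emulsion with 0.5% additive at 600 l/ha onto soil covering sown seeds, at rates corresponding to 320 g/ha or less. After about 3 weeks in greenhouse, efficacy scored visually as percent versus untreated controls (100% = plants dead).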

Kochia scoparia (KCHSC) [3] = assay: B. Herbicidal post-emergence efficacy, KCHSC; conditions: for Post-emergence efficacy against KCHSC: 1280 g/ha; for Post-emergence efficacy against KCHSC in %: rated visually after about 3 weeks
In short: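 Visual percent efficacy relative to untreated controls (0% unaffected, 100% dead), scored roughly 3 weeks after foliar spraying of one-leaf-stage pot-grown plants with WP or EC preparations at application rates up to 1280 g/ha in 600 L/ha water containing 0.5% additive.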

[4] = tested on: Echinochloa crus-galli (ECHCG); assay: A. Herbicidal pre-emergence efficacy, ECHCG; conditions: scored visually after about 3 weeks vs untreated controls
In short: as §1

Lolium rigidum (LOLRI) = assay: A. Herbicidal pre-emergence efficacy, LOLRI
In short: as §1

Veronica persica (VERPE) = assay: A. Herbicidal pre-emergence efficacy, VERPE; conditions: for Pre-emergence efficacy against VERPE: dosage 80 g/ha
In short: as §1

Viola tricolor (VIOTR) = assay: E. Herbicidal post-emergence efficacy, VIOTR
In short: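 Greenhouse weeds were treated post-emergence at the one-leaf stage, 2-3 weeks after sowing in sandy loam, with WP or EC formulations sprayed as aqueous suspension/emulsion plus 0.5% additive at 600 l/ha, at 320 g/ha or less. Efficacy was rated visually after about 3 weeks versus untreated controls (100% = dead, 0% = like control).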

[5] = 80 g/ha, scored visually after about 3 weeks vs untreated controls
[6] = pre-emergence, dosage 1280 g/ha

| Structure (SMILES) | Pre-emergence efficacy against KCHSC (Kochia scoparia (KCHSC) [1]; [5]) [%] | Pre-emergence efficacy against KCHSC (Kochia scoparia (KCHSC) [1]; pre-emergence, dosage 320 g/ha) [%] | Pre-emergence efficacy against KCHSC (Kochia scoparia (KCHSC) [1]; [6]) [%] | Pre-emergence efficacy against POLCO ([2]; 80 g/ha) [%] | Pre-emergence efficacy against POLCO ([2]; 320 g/ha) [%] | Post-emergence efficacy against KCHSC (Kochia scoparia (KCHSC) [3]) [%] | Pre-emergence efficacy against ECHCG ([4]; 320 g/ha) [%] | Pre-emergence efficacy against ECHCG ([4]; 1280 g/ha) [%] | Pre-emergence efficacy against LOLRI (Lolium rigidum (LOLRI); dosage 1280 g/ha) [%] | Pre-emergence efficacy against VERPE in % (Veronica persica (VERPE); 1280 g/ha) [%] | Post-emergence efficacy against VIOTR in % (Viola tricolor (VIOTR); application rate 320 g/ha) [%] | Post-emergence efficacy against KCHSC in % (Kochia scoparia (KCHSC) [3]; 80 g/ha) [%] | Post-emergence efficacy against KCHSC in % (Kochia scoparia (KCHSC) [3]; 320 g/ha) [%] | Pre-emergence efficacy against ECHCG ([4]; 80 g/ha) [%] | Pre-emergence efficacy against LOLRI (Lolium rigidum (LOLRI); dosage 320 g/ha) [%] | Pre-emergence efficacy against VERPE in % (Veronica persica (VERPE); 320 g/ha) [%] | Pre-emergence efficacy against VERPE (Veronica persica (VERPE)) [%] | Post-emergence efficacy against VIOTR in % (Viola tricolor (VIOTR); application rate 80 g/ha) [%] |
| --- | --- | --- | --- | --- | --- | --- | --- | --- | --- | --- | --- | --- | --- | --- | --- | --- | --- | --- |
| CC(C)CS(=O)(=O)Oc1ccccc1Oc1ncc(Cl)cn1 [Example I-7, [2-(5-Chloropyrimidin-2-yl)oxyphenyl] 2-methylpropane-1-sulfonate] | 90 | 100 | 100 | 90 | 100 | 90 | 100 | 100 | 90 | 100 | 90 |  |  |  |  |  |  |  |
| O=S(=O)(CCC(F)(F)F)Oc1ccccc1Oc1ncc(Cl)cn1 [Example I-8] | 100 | 100 | 100 | 90 | 90 | 90 | 90 | 100 | 90 | 100 | 100 | 90 | 90 | 90 | 90 | 100 | 100 | 80 |
| O=S(=O)(CCl)Oc1ccccc1Oc1ncc(Cl)cn1 [Example I-9] | 90 | 100 | 100 |  | 90 | 90 |  | 100 | 90 | 100 | 80 |  |  |  |  |  |  |  |
| O=S(=O)(CCCC(F)(F)F)Oc1ccccc1Oc1ncc(Cl)cn1 [Example I-10] | 100 | 100 | 100 | 90 | 100 | 90 | 100 | 100 | 90 | 100 | 100 | 90 | 90 | 100 | 90 | 100 | 90 | 90 |
| O=S(=O)(CCCCl)Oc1c(F)cccc1Oc1ncc(Cl)cn1 [Example I-14] | 100 | 100 | 100 | 90 | 100 | 100 | 100 | 100 | 100 | 100 | 90 | 100 | 100 | 100 | 100 | 100 | 100 | 90 |
| O=S(=O)(CCCCCl)Oc1ccccc1Oc1ncc(Cl)cn1 [Example I-15] | 100 | 100 | 100 | 80 | 100 | 100 | 100 | 100 | 90 | 90 | 100 | 100 | 100 | 100 |  | 90 |  | 90 |
| O=S(=O)(CC1CC1)Oc1ccccc1Oc1ncc(Cl)cn1 [Example I-23] | 90 | 100 | 100 | 100 | 100 | 100 | 90 | 90 | 90 | 100 | 100 | 100 | 100 | 90 | 90 | 100 | 90 | 100 |
| O=S(=O)(CCC(F)(F)F)Oc1c(Cl)cccc1Oc1ncc(Br)cn1 [Example I-32] |  | 90 | 100 |  | 100 | 100 |  | 100 | 90 | 100 | 100 | 100 | 100 |  |  | 90 | 90 | 100 |
| O=S(=O)(CCC(F)(F)F)Oc1c(Cl)cccc1Oc1ncc(Cl)cn1 [Example I-38] |  | 100 | 100 | 100 | 100 | 90 | 90 | 100 | 100 | 100 | 100 |  | 90 |  |  | 90 | 90 | 100 |
| O=S(=O)(CCCC(F)(F)F)Oc1c(Cl)cccc1Oc1ncc(Cl)cn1 [Example I-39] | 100 | 100 | 100 | 100 | 100 | 90 | 90 | 100 | 100 | 100 | 100 | 90 | 90 |  | 100 | 100 | 90 | 100 |
| O=S(=O)(CCC(F)(F)F)Oc1c(F)cccc1Oc1ncc(Br)cn1 [Example I-40] | 100 | 100 | 100 | 100 | 100 | 90 | 100 | 100 | 100 | 100 | 100 | 90 | 90 | 100 | 100 | 100 | 100 | 100 |
| O=S(=O)(CCCC(F)(F)F)Oc1c(F)cccc1Oc1ncc(Br)cn1 [Example I-41] | 100 | 100 | 100 | 100 | 100 | 90 | 100 | 100 | 100 | 100 | 100 | 90 | 90 |  | 100 | 100 | 90 | 100 |
